In ChEMBL document CHEMBL4507289, “Data for DCP probe GSM1” (2021):

How the values were obtained:
[1] = test system: Tyrosine-protein kinase ABL1 (Homo sapiens), P00519 [M351T]; conditions: Compound concentration 1000.0 nM
[2] = molecular target: Tyrosine-protein kinase ABL1 (Homo sapiens) (UniProt P00519); conditions: Compound concentration 1000.0 nM
[3] = molecular target: Tyrosine-protein kinase ABL1 (Homo sapiens) (UniProt P00519); conditions: Compound concentration 1000.0 nM; remark: listed apart in the source
[4] = molecular target: RAC-alpha serine/threonine-protein kinase (Homo sapiens) (UniProt P31749); conditions: Compound concentration 1000.0 nM
[5] = molecular target: BMP-2-inducible protein kinase (Homo sapiens) (UniProt Q9NSY1); conditions: Compound concentration 1000.0 nM
[6] = molecular target: Cyclin-dependent kinase 5 (Homo sapiens) (UniProt Q00535); conditions: Compound concentration 1000.0 nM
[7] = molecular target: Casein kinase I isoform gamma-3 (Homo sapiens) (UniProt Q9Y6M4); conditions: Compound concentration 1000.0 nM
[8] = molecular target: Serine/threonine-protein kinase DCLK3 (Homo sapiens) (UniProt Q9C098); conditions: Compound concentration 1000.0 nM
[9] = molecular target: Discoidin domain-containing receptor 2 (Homo sapiens) (UniProt Q16832); conditions: Compound concentration 1000.0 nM
[10] = test system: Epidermal growth factor receptor (Homo sapiens), P00533 [L858R,T790M]; conditions: Compound concentration 1000.0 nM
[11] = molecular target: Ephrin type-A receptor 1 (Homo sapiens) (UniProt P21709); conditions: Compound concentration 1000.0 nM
[12] = molecular target: Ephrin type-A receptor 3 (Homo sapiens) (UniProt P29320); conditions: Compound concentration 1000.0 nM
[13] = molecular target: Ephrin type-A receptor 6 (Homo sapiens) (UniProt Q9UF33); conditions: Compound concentration 1000.0 nM
[14] = molecular target: Serine/threonine-protein kinase/endoribonuclease IRE1 (Homo sapiens) (UniProt O75460); conditions: Compound concentration 1000.0 nM
[15] = test system: Receptor-type tyrosine-protein kinase FLT3 (Homo sapiens), P36888 [UNDEFINED MUTATION]; conditions: Compound concentration 1000.0 nM
[16] = molecular target: Insulin receptor (Homo sapiens) (UniProt P06213); conditions: Compound concentration 1000.0 nM
[17] = test system: Mast/stem cell growth factor receptor Kit (Homo sapiens), P10721 [D816V]; conditions: Compound concentration 1000.0 nM
[18] = molecular target: LIM domain kinase 1 (Homo sapiens) (UniProt P53667); conditions: Compound concentration 1000.0 nM
[19] = molecular target: Serine/threonine-protein kinase 10 (Homo sapiens) (UniProt O94804); conditions: Compound concentration 1000.0 nM
[20] = molecular target: MAP kinase-activated protein kinase 5 (Homo sapiens) (UniProt Q8IW41); conditions: Compound concentration 1000.0 nM
[21] = molecular target: Serine/threonine-protein kinase MARK1 (Homo sapiens) (UniProt Q9P0L2); conditions: Compound concentration 1000.0 nM
[22] = molecular target: Serine/threonine-protein kinase Nek1 (Homo sapiens) (UniProt Q96PY6); conditions: Compound concentration 1000.0 nM
[23] = molecular target: Mitogen-activated protein kinase kinase kinase 14 (Homo sapiens) (UniProt Q99558); conditions: Compound concentration 1000.0 nM
[24] = molecular target: Platelet-derived growth factor receptor beta (Homo sapiens) (UniProt P09619); conditions: Compound concentration 1000.0 nM
[25] = molecular target: Calcium-dependent protein kinase 1 (Plasmodium falciparum) (UniProt P62344); conditions: Compound concentration 1000.0 nM
[26] = test system: Phosphatidylinositol 4,5-bisphosphate 3-kinase catalytic subunit alpha isoform (Homo sapiens), P42336 [C420R]; conditions: Compound concentration 1000.0 nM
[27] = test system: Phosphatidylinositol 4,5-bisphosphate 3-kinase catalytic subunit alpha isoform (Homo sapiens), P42336 [I800L]; conditions: Compound concentration 1000.0 nM
[28] = molecular target: Phosphatidylinositol 4,5-bisphosphate 3-kinase catalytic subunit delta isoform (Homo sapiens) (UniProt O00329); conditions: Compound concentration 1000.0 nM
[29] = molecular target: Serine/threonine-protein kinase pim-1 (Homo sapiens) (UniProt P11309); conditions: Compound concentration 1000.0 nM
[30] = molecular target: Membrane-associated tyrosine- and threonine-specific cdc2-inhibitory kinase (Homo sapiens) (UniProt Q99640); conditions: Compound concentration 1000.0 nM
[31] = molecular target: Protein kinase C iota type (Homo sapiens) (UniProt P41743); conditions: Compound concentration 1000.0 nM
[32] = test system: Proto-oncogene tyrosine-protein kinase receptor Ret (Homo sapiens), P07949 [V804M]; conditions: Compound concentration 1000.0 nM
[33] = molecular target: Receptor-interacting serine/threonine-protein kinase 1 (Homo sapiens) (UniProt Q13546); conditions: Compound concentration 1000.0 nM
[34] = molecular target: Ribosomal protein S6 kinase alpha-4 (Homo sapiens) (UniProt O75676); conditions: Compound concentration 1000.0 nM
[35] = molecular target: Ribosomal protein S6 kinase alpha-1 (Homo sapiens) (UniProt Q15418); conditions: Compound concentration 1000.0 nM
[36] = molecular target: Serine/threonine-protein kinase SBK1 (Homo sapiens) (UniProt Q52WX2); conditions: Compound concentration 1000.0 nM
[37] = molecular target: Serine/threonine-protein kinase TAO3 (Homo sapiens) (UniProt Q9H2K8); conditions: Compound concentration 1000.0 nM
[38] = molecular target: Tyrosine-protein kinase Tec (Homo sapiens) (UniProt P42680); conditions: Compound concentration 1000.0 nM
[39] = molecular target: 5-hydroxytryptamine receptor 1B (Homo sapiens) (UniProt P28222); conditions: Compound concentration 10.0 uM
[40] = molecular target: Sodium-dependent dopamine transporter (Homo sapiens, UniProt Q01959); conditions: Compound concentration 10.0 uM
[41] = molecular target: Mu-type opioid receptor (Homo sapiens) (UniProt P35372); conditions: Compound concentration 10.0 uM
[42] = molecular target: Alpha-2C adrenergic receptor (Homo sapiens) (UniProt P18825); conditions: Compound concentration 10.0 uM
[43] = molecular target: GABA-A receptor; anion channel (Rattus norvegicus) (UniProt O09028+P15431+P18506+P18508+P19969+P20236+P23574+P23576+P28471+P28473+P30191+P62813+P63079+P63138+Q91ZM7+Q9ES14); conditions: Compound concentration 10.0 uM

Chain of Cyclin-dependent kinase 5 (Homo sapiens) (Q00535 whole entry, looked up, canonical isoform): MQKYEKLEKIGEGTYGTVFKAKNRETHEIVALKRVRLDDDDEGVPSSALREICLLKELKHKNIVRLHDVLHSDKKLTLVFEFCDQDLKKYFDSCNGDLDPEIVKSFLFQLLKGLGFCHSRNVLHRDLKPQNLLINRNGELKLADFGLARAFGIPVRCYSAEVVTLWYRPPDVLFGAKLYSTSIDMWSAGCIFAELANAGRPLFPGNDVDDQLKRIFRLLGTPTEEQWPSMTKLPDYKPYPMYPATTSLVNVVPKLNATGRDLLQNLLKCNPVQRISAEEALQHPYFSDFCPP
Chain of Receptor-type tyrosine-protein kinase FLT3 (Homo sapiens), P36888 [UNDEFINED MUTATION] (P36888 whole entry, looked up, stated change not applied): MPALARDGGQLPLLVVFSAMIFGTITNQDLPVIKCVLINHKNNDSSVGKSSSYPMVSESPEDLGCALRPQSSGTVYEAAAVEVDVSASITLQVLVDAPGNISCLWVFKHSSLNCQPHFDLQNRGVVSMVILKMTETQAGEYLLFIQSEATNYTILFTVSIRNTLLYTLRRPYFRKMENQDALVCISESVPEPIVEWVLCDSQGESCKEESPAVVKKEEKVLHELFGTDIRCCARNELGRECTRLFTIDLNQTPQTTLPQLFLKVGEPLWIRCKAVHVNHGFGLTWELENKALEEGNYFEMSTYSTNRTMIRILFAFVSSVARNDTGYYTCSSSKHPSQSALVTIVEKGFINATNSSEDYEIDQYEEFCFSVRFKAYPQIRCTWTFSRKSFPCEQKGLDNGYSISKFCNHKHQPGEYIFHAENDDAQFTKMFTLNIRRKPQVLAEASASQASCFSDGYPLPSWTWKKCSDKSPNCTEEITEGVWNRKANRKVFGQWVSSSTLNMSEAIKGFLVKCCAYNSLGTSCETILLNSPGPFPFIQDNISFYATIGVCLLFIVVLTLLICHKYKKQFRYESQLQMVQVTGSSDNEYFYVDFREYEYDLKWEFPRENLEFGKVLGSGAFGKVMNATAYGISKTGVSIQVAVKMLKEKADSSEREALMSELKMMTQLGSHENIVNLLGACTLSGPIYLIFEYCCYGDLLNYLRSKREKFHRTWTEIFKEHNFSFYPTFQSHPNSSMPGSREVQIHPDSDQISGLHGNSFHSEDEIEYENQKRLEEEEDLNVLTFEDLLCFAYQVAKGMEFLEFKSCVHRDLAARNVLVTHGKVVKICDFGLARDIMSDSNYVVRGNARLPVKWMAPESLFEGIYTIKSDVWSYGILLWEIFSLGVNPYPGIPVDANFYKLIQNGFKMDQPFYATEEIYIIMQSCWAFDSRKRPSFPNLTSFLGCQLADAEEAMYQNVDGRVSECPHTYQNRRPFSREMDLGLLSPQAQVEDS
Chain of 5-hydroxytryptamine receptor 1B (Homo sapiens) (P28222 whole entry): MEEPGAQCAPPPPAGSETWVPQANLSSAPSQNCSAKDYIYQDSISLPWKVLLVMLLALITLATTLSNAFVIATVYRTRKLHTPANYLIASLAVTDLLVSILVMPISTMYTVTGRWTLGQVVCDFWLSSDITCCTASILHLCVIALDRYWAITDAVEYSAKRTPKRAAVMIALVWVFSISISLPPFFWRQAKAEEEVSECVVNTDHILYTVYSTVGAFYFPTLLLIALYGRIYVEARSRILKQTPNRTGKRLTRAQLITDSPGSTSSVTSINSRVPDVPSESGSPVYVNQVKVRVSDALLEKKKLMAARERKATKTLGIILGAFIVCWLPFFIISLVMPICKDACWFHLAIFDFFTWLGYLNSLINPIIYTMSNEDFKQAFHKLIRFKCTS
Chain of Serine/threonine-protein kinase TAO3 (Homo sapiens) (Q9H2K8 whole entry): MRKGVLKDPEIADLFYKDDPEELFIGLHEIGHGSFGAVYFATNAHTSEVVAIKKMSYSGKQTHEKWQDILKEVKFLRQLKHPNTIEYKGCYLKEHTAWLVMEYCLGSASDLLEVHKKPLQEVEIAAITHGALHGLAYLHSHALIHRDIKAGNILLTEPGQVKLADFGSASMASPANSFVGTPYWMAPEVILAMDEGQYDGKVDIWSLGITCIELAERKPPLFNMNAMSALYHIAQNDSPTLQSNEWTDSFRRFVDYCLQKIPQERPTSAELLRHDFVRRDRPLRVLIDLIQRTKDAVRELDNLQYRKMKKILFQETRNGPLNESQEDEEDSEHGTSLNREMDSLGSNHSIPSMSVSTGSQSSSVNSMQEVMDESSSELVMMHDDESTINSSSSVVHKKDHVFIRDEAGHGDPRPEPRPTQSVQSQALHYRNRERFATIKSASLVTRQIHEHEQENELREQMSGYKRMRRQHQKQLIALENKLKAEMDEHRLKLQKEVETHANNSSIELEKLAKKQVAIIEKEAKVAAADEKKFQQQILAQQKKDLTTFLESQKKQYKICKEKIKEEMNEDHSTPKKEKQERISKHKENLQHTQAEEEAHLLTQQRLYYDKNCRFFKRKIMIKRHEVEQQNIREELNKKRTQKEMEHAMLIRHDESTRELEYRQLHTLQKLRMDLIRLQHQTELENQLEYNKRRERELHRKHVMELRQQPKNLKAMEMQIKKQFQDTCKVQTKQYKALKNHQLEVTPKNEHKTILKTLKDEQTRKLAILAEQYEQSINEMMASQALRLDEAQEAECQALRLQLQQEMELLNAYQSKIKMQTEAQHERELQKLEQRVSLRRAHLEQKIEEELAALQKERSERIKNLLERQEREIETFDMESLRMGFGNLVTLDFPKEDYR
Chain of Mu-type opioid receptor (Homo sapiens) (P35372 whole entry): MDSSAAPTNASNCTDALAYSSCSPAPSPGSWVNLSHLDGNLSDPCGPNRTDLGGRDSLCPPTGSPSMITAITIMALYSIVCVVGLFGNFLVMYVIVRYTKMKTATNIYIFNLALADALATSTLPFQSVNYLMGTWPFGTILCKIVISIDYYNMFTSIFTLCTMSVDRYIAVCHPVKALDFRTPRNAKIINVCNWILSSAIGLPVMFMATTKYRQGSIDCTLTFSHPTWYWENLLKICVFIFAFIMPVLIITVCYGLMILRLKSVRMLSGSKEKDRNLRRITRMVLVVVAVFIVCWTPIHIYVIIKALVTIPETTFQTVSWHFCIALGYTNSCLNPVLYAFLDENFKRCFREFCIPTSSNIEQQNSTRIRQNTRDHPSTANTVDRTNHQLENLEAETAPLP
Chain of Ribosomal protein S6 kinase alpha-1 (Homo sapiens) (Q15418 whole entry): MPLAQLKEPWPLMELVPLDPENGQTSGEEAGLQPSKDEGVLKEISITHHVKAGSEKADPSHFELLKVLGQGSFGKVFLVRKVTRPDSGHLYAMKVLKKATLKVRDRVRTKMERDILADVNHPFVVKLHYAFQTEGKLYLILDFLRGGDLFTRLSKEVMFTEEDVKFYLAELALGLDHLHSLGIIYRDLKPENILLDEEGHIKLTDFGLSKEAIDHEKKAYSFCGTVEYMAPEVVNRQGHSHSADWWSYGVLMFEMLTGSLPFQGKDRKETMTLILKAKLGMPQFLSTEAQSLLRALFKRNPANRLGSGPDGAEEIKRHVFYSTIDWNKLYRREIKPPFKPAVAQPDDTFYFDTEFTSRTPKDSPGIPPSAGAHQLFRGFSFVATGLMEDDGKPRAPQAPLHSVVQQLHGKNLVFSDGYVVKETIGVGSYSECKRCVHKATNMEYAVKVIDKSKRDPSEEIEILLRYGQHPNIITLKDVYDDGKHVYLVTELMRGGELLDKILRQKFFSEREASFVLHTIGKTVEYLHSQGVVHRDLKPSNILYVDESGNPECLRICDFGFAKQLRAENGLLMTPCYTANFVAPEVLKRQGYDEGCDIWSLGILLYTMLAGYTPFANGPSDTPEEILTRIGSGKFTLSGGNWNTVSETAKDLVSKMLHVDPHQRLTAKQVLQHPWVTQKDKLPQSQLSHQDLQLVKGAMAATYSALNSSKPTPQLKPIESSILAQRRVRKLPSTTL
Chain of Serine/threonine-protein kinase MARK1 (Homo sapiens) (Q9P0L2 whole entry, looked up): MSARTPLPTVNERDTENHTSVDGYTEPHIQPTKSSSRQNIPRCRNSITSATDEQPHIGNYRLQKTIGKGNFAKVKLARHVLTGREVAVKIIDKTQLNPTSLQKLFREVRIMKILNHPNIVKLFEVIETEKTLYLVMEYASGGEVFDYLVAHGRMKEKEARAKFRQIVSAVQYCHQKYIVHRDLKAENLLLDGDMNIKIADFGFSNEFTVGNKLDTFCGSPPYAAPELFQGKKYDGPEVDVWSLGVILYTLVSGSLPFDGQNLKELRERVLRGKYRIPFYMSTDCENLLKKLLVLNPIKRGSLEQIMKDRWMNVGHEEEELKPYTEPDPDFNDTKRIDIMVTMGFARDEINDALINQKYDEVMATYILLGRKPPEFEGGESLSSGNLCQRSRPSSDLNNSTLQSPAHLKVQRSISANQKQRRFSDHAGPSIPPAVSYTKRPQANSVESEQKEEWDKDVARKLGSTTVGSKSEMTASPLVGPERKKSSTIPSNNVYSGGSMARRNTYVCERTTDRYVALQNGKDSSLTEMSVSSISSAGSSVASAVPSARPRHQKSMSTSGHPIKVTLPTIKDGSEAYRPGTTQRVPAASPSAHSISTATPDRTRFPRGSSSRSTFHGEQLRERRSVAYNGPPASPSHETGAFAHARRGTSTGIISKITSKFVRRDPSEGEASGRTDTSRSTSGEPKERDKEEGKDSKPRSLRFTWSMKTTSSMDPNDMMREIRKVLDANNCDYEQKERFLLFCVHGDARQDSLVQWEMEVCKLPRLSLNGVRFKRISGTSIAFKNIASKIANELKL
Chain of Serine/threonine-protein kinase pim-1 (Homo sapiens) (P11309 whole entry, looked up): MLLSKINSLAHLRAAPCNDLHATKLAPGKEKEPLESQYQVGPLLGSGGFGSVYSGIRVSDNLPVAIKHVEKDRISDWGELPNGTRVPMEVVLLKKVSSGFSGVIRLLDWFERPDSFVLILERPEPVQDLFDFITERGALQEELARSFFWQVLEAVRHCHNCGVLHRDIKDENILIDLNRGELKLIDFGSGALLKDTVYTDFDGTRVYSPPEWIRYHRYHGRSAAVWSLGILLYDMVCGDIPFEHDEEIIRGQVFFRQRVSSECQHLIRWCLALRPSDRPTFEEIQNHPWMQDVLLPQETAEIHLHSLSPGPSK

COc1cc(-c2cn([C@H]3CCc4ccccc4N(CC(F)(F)F)C3=O)nn2)ccc1-n1ccc(C)n1
inactive: residual activity [1] 64% | residual activity [2] 78% | residual activity [3] 75% | residual activity [4] 97% | residual activity [5] 100% | residual activity [6] 100% | residual activity [7] 86% | residual activity [8] 100% | residual activity [9] 99% | residual activity [10] 65% | residual activity [11] 89% | residual activity [12] 95% | residual activity [13] 98% | residual activity [14] 86% | residual activity [15] 98% | residual activity [16] 69% | residual activity [17] 100% | residual activity [18] 100% | residual activity [19] 100% | residual activity [20] 91% | residual activity [21] 99% | residual activity [22] 100% | residual activity [23] 69% | residual activity [24] 100% | residual activity [25] 99% | residual activity [26] 68% | residual activity [27] 76% | residual activity [28] 100% | residual activity [29] 100% | residual activity [30] 100% | residual activity [31] 100% | residual activity [32] 100% | residual activity [33] 100% | residual activity [34] 97% | residual activity [35] 95% | residual activity [36] 94% | residual activity [37] 72% | residual activity [38] 100% | inhibition [39] 30.8% | inhibition [40] 5.21% | inhibition [41] 5.55% | inhibition [42] 9.04% | inhibition [43] 0.92%

COc1cc(-c2cn([C@H]3CCc4c(F)cccc4N(CC(F)(F)F)C3=O)nn2)ccc1-n1cnc(C)c1
inactive: residual activity [1] 95% | residual activity [2] 94% | residual activity [3] 100% | residual activity [4] 96% | residual activity [5] 100% | residual activity [6] 100% | residual activity [7] 86% | residual activity [8] 100% | residual activity [9] 100% | residual activity [10] 82% | residual activity [11] 100% | residual activity [12] 97% | residual activity [13] 100% | residual activity [14] 100% | residual activity [15] 100% | residual activity [16] 90% | residual activity [17] 100% | residual activity [18] 100% | residual activity [19] 100% | residual activity [20] 100% | residual activity [21] 100% | residual activity [22] 100% | residual activity [23] 86% | residual activity [24] 100% | residual activity [25] 100% | residual activity [26] 75% | residual activity [27] 66% | residual activity [28] 100% | residual activity [29] 96% | residual activity [30] 100% | residual activity [31] 100% | residual activity [32] 88% | residual activity [33] 100% | residual activity [34] 100% | residual activity [35] 100% | residual activity [36] 94% | residual activity [37] 100% | residual activity [38] 100% | inhibition [39] 35% | inhibition [41] 30.2% | inhibition [42] 38.3% | inhibition [43] 28.6%
active: inhibition [40] 99.7%
